Patent US20260034192A1 (University of Saskatchewan, priority 2022, published 2026)
Where “and” joins values, the source holds several entries; their conditions need not be identical. Equal entries are not always repeated. Marks after values point to notes of the source that are not given here. Square brackets hold non-standard residues; d marks the D form. Peptide text beside a SMILES is read from it. dPhe(4-Cl) = N[C@H](Cc1ccc(Cl)cc1)C(=O)O; d2Nal = N[C@H](Cc1ccc2ccccc2c1)C(=O)O; dCit = NC(=O)NCCC[C@@H](N)C(=O)O; d3Pal = N[C@H](Cc1cccnc1)C(=O)O

Columns and labels:
[1] = tested on: alpacas; assay: Alpaca random day study, single Cetrorelix injection (Example 3); format: in vivo; details: for Duration from treatment to next wave emergence, mean / Variance of duration from treatment to wave emergence (synchrony): alpacas, n = 15, single i/m 1.5 mg on random day of wave
Procedure: Methods: Ultrasonographic methods and follicular endpoint recording were similar to those described in Example 2. Follicular endpoints were obtained from alpacas (n=15) before and after treatment, therefore each animal acts as its own control. A fixed calendar day (July 16) was pre-assigned for Cetrorelix treatment. Daily transrectal ultrasonography was performed (n=15 alpacas) from May 31 to June 16. This examination period was used to record the variance in wave emergence from a fixed calendar date (May 31) without giving treatment (control period). Animals were at unknown/random day of the wave at the beginning of this 17-day time-window (i.e., longer than one natural inter-wave interval); therefore, all animals were expected to have at least one wave emergence encompassing this period. All alpacas were treated with a single intramuscular injection of 1.5 mg (3 mL) Cetrorelix acetate on July 16 and daily ultrasound examinations continued from the day of treatment until Day 3 after the next (post-treatment) wave emergence (treatment period). Synchrony of wave emergence was compared between the control period and the treatment period.
Statistical analyses: A Proc Mixed repeated measures analysis of variance (SAS version 9.4) was performed to compare serial data (follicle size and follicle numbers changes over days) and ANOVA or paired T-test were used for single-point numerical measurements. Count data were compared using Fisher's Exact test. Synchrony of the wave emergence was compared using Barlett's and Levene's tests of homogeneity of the variance.

[2] = tested on: heifers; assay: Single 3 mg Cetrorelix injection on Day 1, 3 or 6 of wave in heifers (Example 5); format: in vivo, cattle; details: for Pregnant/AI: diagnosis 30 days after AI; for Ovulatory follicle size: in mm (unit assumed)
Procedure: Heifers on a random day of the cycle were treated with two i/m injections of prostaglandin analog and observed by transrectal ultrasonography for the day of ovulation (Defined as Day 0 of the wave). Heifers were then randomized into 4 groups (n=7 to 8 per group) and treated with normal saline (control group) or a single 3 mg i/m injection of cetrorelix on Day 1, Day 3 or Day 6 of the first follicular wave. […] Pregnancy diagnosis was done 30 days after artificial insemination.

[3] = tested on: Brahman x Angus cross beef post-partum cows; assay: Field trial of fixed-time AI after cetrorelix versus estradiol protocol (Example 8); format: in vivo, cattle
Procedure: This field trial was conducted by a faculty member of the Federal University of Santa Maria at a client beef farm in Brazil in December 2022. A total of 216 Brahman x Angus cross beef post-partum cows were used for this experiment. Cows were divided into two treatment groups ([…]) and were either given cetrorelix 3 mg i/m or estradiol benzoate on a random day of the cycle (defined as Day 0). An intravaginal progesterone device (CIDR) was placed in all cows on Day 0. The CIDR devices were removed on Day 8 and animals were given prostaglandin F2a analog and equine choriogonadotropin (eCG). Fixed-time artificial insemination was done 54 hrs after CIDR removal and animals were given GnRH at this time. Pregnancy diagnosis was performed on Day 30 after artificial insemination. Transrectal ultrasound examinations were performed on Day 0, Day 8, Day 10 and Day 40.

[4] = single 3 mg i/m on Day 1 (Cetro 1)
[5] = single 3 mg i/m on Day 3 (Cetro 3)
[6] = single 3 mg i/m on Day 6 (Cetro 6)
[7] = three cetrorelix groups combined
[8] = 30 days after fixed-time artificial insemination

CC(=O)N[C@H](Cc1ccc2ccccc2c1)C(=O)N[C@H](Cc1ccc(Cl)cc1)C(=O)N[C@H](Cc1cccnc1)C(=O)N[C@@H](CO)C(=O)N[C@@H](Cc1ccc(O)cc1)C(=O)N[C@H](CCCNC(N)=O)C(=O)N[C@@H](CC(C)C)C(=O)N[C@@H](CCCNC(=N)N)C(=O)N1CCC[C@H]1C(=O)N[C@H](C)C(N)=O [Cetrorelix, N-acetyl-3-(2-naphthyl)-D-alanyl-4-chloro-D-phenylalanyl-3-(3-pyridyl)-D-alanyl-L-seryl-L-tyrosyl-D-citrullyl-L-leucyl-L-arginyl-L-prolyl-D-alaninamide] (Ac-[d2Nal][dPhe(4-Cl)][d3Pal]SY[dCit]LRP[dA]-NH2)
Duration from treatment to next wave emergence, mean [1]: 5.33 ± 0.70 days and 5.33 days | Variance of duration from treatment to wave emergence (synchrony) [1]: 7.38 | Duration from treatment to next wave emergence, mean ([1]; listed as Cetro): 5.33 days | Variance of duration from treatment to wave emergence (synchrony) ([1]; listed as Cetro): 7.381 | Duration from treatment to next wave emergence, mean ([1]; listed as cetrorelix): about 5.33±0.70 days | Duration from Treatment to Wave Emergence ([1]; individual alpacas, single i/m injection of 1.5 mg Cetrorelix on random day of wave): 11 days and 3 days (2×) and 4 days (6×) and 9 days and 1 days and 6 days and 8 days (2×) and 7 days | Wave emergence after the cetrorelix treatment irrespective of the phase of the dominant follicle ([2]; single 3 mg (about 7.5 ug/kg) i/m, groups combined): about 3.5±0.4 days | Start of dominant follicle regression after cetrorelix treatment ([2]; single 3 mg i/m): ≤ 2 days | Day of second wave emergence [2, 4]: 4.4 ± 0.5^c | Days from second wave emergence to ovulation [2, 4]: 10.0 ± 0.6^ab* Days | Pregnancy rate (Pregnant/AI, percent) [2, 4]: (62%) | Treatment to wave emergence [2, 4]: 3.4 ± 0.5 days | Pregnant/AI [2, 4]: 5/8 | Ovulatory follicle size [2, 4]: 14.4 ± 1.0 | Day of second wave emergence [2, 5]: 7.0 ± 0.4^b | Days from second wave emergence to ovulation [2, 5]: 9.0 ± 0.4^ab Days | Pregnancy rate (Pregnant/AI, percent) [2, 5]: (66%) | Treatment to wave emergence (days) [2, 5]: 4.0 ± 0.4^ days | Pregnant/AI [2, 5]: 4/6 | Ovulatory follicle size [2, 5]: 15.8 ± 0.6 | Day of second wave emergence [2, 6]: 9.4 ± 0.5^a | Days from second wave emergence to ovulation [2, 6]: 8.4 ± 0.4^b Days | Pregnancy rate (Pregnant/AI, percent) [2, 6]: (42%) | Treatment to wave emergence [2, 6]: 3.4 ± 0.5 days | Pregnant/AI [2, 6]: 3/7 | Ovulatory follicle size [2, 6]: 14.9 ± 0.3 | Overall pregnancy rate, percent [2, 7]: 57% | Overall pregnancy rate, pregnant/AI [2, 7]: 12/21 | Conception rate: Percent [3, 8]: 42.6% | Conception rate: Pregnant/AI [3, 8]: 46/108* | Conception rate: Percent ([3]; 30 days after fixed-time artificial insemination, listed as cetrorelix): 42.6% | Size of the dominant follicle on Day 8 (at PGF) ([3]; cetrorelix 3 mg i/m or estradiol benzoate on Day 0, CIDR removal Day 8, in mm): 11.04 ± 0.48 | Size of the dominant follicle on Day 10 (at AI) ([3]; cetrorelix 3 mg i/m or estradiol benzoate on Day 0, in mm): 12.72 ± 0.65
